Data published in patent US10849866B2, “Methods for inhibiting conversion of choline to trimethylamine (TMA)” (The Procter & Gamble Company, priority 2017, dated 2020).

How the values were obtained:
[1] = molecular target: T1, recombinant P. mirabilis Cut C/D lysate (Proteus mirabilis, UniProt B4EYG1); assay: Inhibition of conversion of choline to TMA by recombinant P. mirabilis Cut C/D lysate (Example 5); type: biochemical
T1 sequence (B4EYG1 1-1142): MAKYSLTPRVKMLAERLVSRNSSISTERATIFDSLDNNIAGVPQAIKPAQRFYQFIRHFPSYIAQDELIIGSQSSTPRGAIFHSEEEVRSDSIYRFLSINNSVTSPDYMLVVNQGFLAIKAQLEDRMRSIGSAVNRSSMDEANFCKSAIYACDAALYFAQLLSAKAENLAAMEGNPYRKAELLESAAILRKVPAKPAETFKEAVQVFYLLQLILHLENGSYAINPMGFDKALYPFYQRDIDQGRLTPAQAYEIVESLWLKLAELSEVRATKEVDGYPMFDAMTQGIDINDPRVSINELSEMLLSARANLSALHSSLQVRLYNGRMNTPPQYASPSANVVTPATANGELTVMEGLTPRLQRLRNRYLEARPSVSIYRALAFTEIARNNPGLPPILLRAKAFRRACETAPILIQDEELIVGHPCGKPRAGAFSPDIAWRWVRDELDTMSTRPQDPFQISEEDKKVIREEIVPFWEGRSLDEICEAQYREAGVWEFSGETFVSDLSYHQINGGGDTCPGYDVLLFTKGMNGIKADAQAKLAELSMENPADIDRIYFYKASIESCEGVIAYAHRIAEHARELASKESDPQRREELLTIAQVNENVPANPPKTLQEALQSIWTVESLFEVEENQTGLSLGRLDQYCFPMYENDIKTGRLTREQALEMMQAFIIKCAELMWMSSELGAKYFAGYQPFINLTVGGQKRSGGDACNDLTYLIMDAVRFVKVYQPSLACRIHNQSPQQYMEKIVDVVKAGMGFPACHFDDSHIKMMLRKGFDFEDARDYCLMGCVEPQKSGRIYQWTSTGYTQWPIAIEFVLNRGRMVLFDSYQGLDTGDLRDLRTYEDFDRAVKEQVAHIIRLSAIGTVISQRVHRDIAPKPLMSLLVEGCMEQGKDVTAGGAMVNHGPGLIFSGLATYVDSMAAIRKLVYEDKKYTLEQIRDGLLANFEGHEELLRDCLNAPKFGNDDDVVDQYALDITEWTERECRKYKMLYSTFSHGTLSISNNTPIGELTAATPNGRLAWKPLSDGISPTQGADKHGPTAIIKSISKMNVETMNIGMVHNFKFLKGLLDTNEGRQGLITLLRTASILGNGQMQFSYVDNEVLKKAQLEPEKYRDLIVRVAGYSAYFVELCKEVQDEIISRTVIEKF
T1 sequence (B4EYG0 1-316 partner): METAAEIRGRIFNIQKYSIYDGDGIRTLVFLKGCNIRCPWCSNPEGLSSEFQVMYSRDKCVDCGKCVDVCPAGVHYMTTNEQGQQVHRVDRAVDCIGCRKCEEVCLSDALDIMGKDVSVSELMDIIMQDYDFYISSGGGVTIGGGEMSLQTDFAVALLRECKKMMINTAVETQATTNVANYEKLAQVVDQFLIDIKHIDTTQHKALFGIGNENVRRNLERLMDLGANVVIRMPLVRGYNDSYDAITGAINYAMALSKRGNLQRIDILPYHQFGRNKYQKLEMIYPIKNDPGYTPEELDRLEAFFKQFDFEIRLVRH
Protocol: (§1) Briefly, efficacy was measured as IC50 (nM) by inhibition of conversion of choline to TMA metabolized by recombinant P. mirabilis Cut C/D lysate; recombinant D. alaskensis Cut C/D lysate, or whole cell wild-type P. mirabilis.

[2] = system: Proteus mirabilis 29906 (Pm) lysate; assay: Inhibition of formation of TMA from choline in Proteus mirabilis lysate (Example 2); type: biochemical; conditions: Pm lysate 1.5 mg/mL protein, 50 μM d9-choline chloride, 37° C., two hours; read-out: TMA Inhibition (IC50, mol/L)
Protocol: Choline chloride (CC) (1M stock) was added to reach a final concentration of 2.5 mM choline chloride. The mixture was mixed using a vortex mixer for approximately 15 seconds and incubated at 37° C. for 22 hours. After incubation, 150 μL of CC-treated Pm lysate was dispensed into a deep-well plate (polypropylene, 2 mL volume, Corning Axygen catalogue # P-DW-20-C). […] The plates were agitated on a plate shaker for 1 minute. d9-choline chloride (1.5 μL of 5 mM) was added to all wells to reach a final d9-choline chloride concentration of 50 μM.
The plates were again agitated on a plate shaker for 1 minute and incubated at 37° C. for two hours. After incubation, 1.5 μL of formic acid was added to each well (final concentration=1% formic acid). The plates were agitated on a plate shaker for 1 minute and placed on ice. Cell lysate samples were spiked with stable isotope labeled internal standard (22.5 μL of 6 μg/mL of 13C3-trimethylamine (13C3-TMA) was added to each sample), then d9-trimethylamine (d9-TMA), trimethylamine (TMA) and 13C3-TMA were isolated from the lysate after protein precipitation as described below. […] The supernatant was removed and analyzed as described below. […] The concentrations of TMA and d9-TMA in the cell lysate were determined by interpolation from the quadratic (1/×2) regression curve.

[3] = molecular target: T2, recombinant D. alaskensis Cut C/D lysate (Oleidesulfovibrio alaskensis, UniProt Q30W70); assay: Inhibition of conversion of choline to TMA by recombinant D. alaskensis Cut C/D lysate (Example 5); type: biochemical
T2 construct: made in house
T2 sequence (Q30W70 1-846): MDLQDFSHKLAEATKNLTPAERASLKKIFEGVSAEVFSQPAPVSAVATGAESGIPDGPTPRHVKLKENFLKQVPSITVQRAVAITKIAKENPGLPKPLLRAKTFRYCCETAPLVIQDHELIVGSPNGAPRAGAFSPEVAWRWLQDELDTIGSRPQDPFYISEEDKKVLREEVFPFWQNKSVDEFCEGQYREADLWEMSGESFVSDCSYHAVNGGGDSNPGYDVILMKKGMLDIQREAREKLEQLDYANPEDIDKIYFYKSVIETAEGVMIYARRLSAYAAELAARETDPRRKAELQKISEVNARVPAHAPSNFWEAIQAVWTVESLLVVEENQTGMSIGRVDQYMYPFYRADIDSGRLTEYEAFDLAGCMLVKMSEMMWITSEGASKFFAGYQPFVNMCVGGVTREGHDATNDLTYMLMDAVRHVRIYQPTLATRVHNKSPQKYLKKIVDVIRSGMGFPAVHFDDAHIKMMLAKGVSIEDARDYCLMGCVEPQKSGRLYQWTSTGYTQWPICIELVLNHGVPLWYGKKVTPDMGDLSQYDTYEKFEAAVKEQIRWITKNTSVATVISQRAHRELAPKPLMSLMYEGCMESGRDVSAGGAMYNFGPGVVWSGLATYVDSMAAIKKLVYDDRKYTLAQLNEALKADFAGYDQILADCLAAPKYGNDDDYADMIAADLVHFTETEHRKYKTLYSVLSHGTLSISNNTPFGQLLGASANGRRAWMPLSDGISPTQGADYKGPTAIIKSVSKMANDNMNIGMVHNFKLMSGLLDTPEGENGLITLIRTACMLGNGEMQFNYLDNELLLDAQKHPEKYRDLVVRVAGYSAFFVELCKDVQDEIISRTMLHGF
Protocol: as §1

[4] = system: conversion of choline to TMA; assay: Rapid preclinical method: d9-choline challenge in mice (Example 6); type: in vivo, C57bl/6 female mice; conditions: oral gavage with 2 mg d9-Choline, plasma, Time 3 hr
Protocol: Challenge: C57bl/6 female mice (8 wk of age ˜20 g BW) were maintained in accordance with the NIH guidelines in a 12:12 hr light:dark cycle on normal chow diet were placed in a clean cage without food ˜1 hr prior to gavage. […] Food was returned after a 2 hr fast (1 hr after gavage administration). Blood (30 μL) was collected into a heparinized capillary tube at 2, 3 and 4 hours after gavage. Blood was kept at 4° C., then spun using a centrifuge (5 min in centrifuge designed to capillary tubes) to separate plasma and hematocrit within 4 hours after collection. Plasma samples were stored at −80° C. Concentration of d9 Choline, d9TMA and d9TMAO was measured by LC-MS/MS.
Flora Normalization: Twenty four hours post-gavage mice were placed in a clean cage and fecal material from conventional mice was spread in all the cages.

[5] = system: whole cell wild-type P. mirabilis; assay: Inhibition of conversion of choline to TMA by whole cell wild-type P. mirabilis (Example 5); type: cell-based; conditions: Proteus mirabilis
Protocol: as §1

SMILES: C[N+](C)(CI)CCF [ID 2, 2-fluoro-N-(iodomethyl)-N,N-dimethylethan-1-aminium chloride]
- IC50 [1]: 240 nM
- IC50 [2]: 179 nM
- IC50 [3]: 150 nM
- Calculated EC50 (mg/kg) compared to Vehicle Control [4]: 15.40 mg/kg
- EC50 [5]: 67000 nM

SMILES: C[N+](C)(CCl)CCF [ID 1, N-(chloromethyl)-2-fluoro-N,N-dimethylethan-1-aminium chloride]
- IC50 [1]: 690 nM
- IC50 [2]: 270 nM
- IC50 [3]: 760 nM
- Calculated EC50 (mg/kg) compared to Vehicle Control [4]: 3.10 mg/kg
- EC50 [5]: 8700 nM
